Experimental data as given in the NIST ThermoML archive (doi:10.1016/j.jct.2013.08.004).
Numbers after ± are expanded uncertainties.

Assay: molar enthalpy of vaporization or sublimation
Settings: 298.15 K; Liquid; Static calorimetry

Compound `COC(=O)c1cccn1C` [methyl 1-methyl-2-pyrrolecarboxylate] has a molar enthalpy of 14.1 ± 0.287 kcal/mol.
